Assays:
Type in all cases: in vivo
Conditions in all cases: treatment dosage 320 g/ha
common wind-grass [1] = experiment: Test Example 3: weedkilling efficacy through soil treatment; J: common wind-grass
Summary of the method: (§1)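 Crop and weed responses were judged three weeks after a uniform surface spray of the water-diluted emulsion at the given g/ha rate. Seeds sat beneath about 1.5 cm of sterilized diluvial soil, and boxes stood in a greenhouse at 25 to 30° C.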

oval-leafed pondweed [2] = experiment: Test Example 2: weedkilling efficacy, growth period weed treatment in the submerged state; C: oval-leafed pondweed
Summary of the method: (§2)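 Weeds treated at the 1-2 leaf stage by application of diluted emulsion onto floodwater (4 cm depth, alluvial soil) at specified g/ha. Grown in greenhouse at 25 to 30° C; herbicidal effect rated three weeks after treatment.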

soybean [3] = experiment: Test Example 4: foliar treatment, effect on crop; d: soybean
Summary of the method: (§3)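 Seeds are spot-sown into sterilized diluvial soil and covered with about 1.5 cm of soil. After 14 days' greenhouse growth at 25 to 30° C, plants are sprayed on stems and leaves with diluted emulsion at the stated g/ha rate, then scored at 3 weeks.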

beet [4] = experiment: Test Example 3: soil treatment, effect on crop; f: beet
Summary of the method: as §1

crabgrass [5] = experiment: Test Example 4: weedkilling efficacy by foliar treatment; D: crabgrass
Summary of the method: as §3

bulrush [6] = experiment: Test Example 2: weedkilling efficacy, growth period weed treatment in the submerged state; B: bulrush
Summary of the method: as §2

Italian ryegrass [7] = experiment: Test Example 3: weedkilling efficacy through soil treatment; I: Italian ryegrass
Summary of the method: as §1

black-grass [8] = experiment: Test Example 3: weedkilling efficacy through soil treatment; H: black-grass
Summary of the method: as §1

redroot pigweed [9] = experiment: Test Example 3: weedkilling efficacy through soil treatment; L: redroot pigweed
Summary of the method: as §1

fig-leafed goosefoot [10] = experiment: Test Example 4: weedkilling efficacy by foliar treatment; M: fig-leafed goosefoot
Summary of the method: as §3

barnyard grass [11] = experiment: Test Example 2: weedkilling efficacy, growth period weed treatment in the submerged state; A: barnyard grass
Summary of the method: as §2

chickweed [12] = experiment: Test Example 4: weedkilling efficacy by foliar treatment; N: chickweed
Summary of the method: as §3

catchweed = experiment: Test Example 4: weedkilling efficacy by foliar treatment; O: catchweed
Summary of the method: as §3

Indian mallow [13] = experiment: Test Example 3: weedkilling efficacy through soil treatment; K: Indian mallow
Summary of the method: as §1

barnyard grass [14] = experiment: Test Example 1: weedkilling efficacy, preemergent weed treatment in the submerged state; A: barnyard grass
Summary of the method: (§4)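 Pre-emergence application onto floodwater (4 cm, alluvial soil) on the day of sowing, dose expressed as g/ha from diluted emulsion formulation. Weeds sown with 2.5-leaf transplanted rice as crop; plants held at 25–30 °C in greenhouse and scored against assessment criteria after 3 weeks.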

common wind-grass [15] = experiment: Test Example 4: weedkilling efficacy by foliar treatment; J: common wind-grass
Summary of the method: as §3

wild oat [16] = experiment: Test Example 3: weedkilling efficacy through soil treatment; G: wild oat
Summary of the method: as §1

corn [17] = experiment: Test Example 3: soil treatment, effect on crop; c: corn
Summary of the method: as §1

transplanted rice = experiment: Test Example 1: preemergent weed treatment in the submerged state, effect on crop; a: transplanted rice
Summary of the method: as §4

crabgrass [18] = experiment: Test Example 3: weedkilling efficacy through soil treatment; D: crabgrass
Summary of the method: as §1

fig-leafed goosefoot [19] = experiment: Test Example 3: weedkilling efficacy through soil treatment; M: fig-leafed goosefoot
Summary of the method: as §1

Indian mallow [20] = experiment: Test Example 4: weedkilling efficacy by foliar treatment; K: Indian mallow
Summary of the method: as §3

rapeseed [21] = experiment: Test Example 3: soil treatment, effect on crop; g: rapeseed
Summary of the method: as §1

directly sown rice [22] = experiment: Test Example 3: soil treatment, effect on crop; b: directly sown rice
Summary of the method: as §1

green foxtail [23] = experiment: Test Example 4: weedkilling efficacy by foliar treatment; E: green foxtail
Summary of the method: as §3

wild oat [24] = experiment: Test Example 4: weedkilling efficacy by foliar treatment; G: wild oat
Summary of the method: as §3

redroot pigweed [25] = experiment: Test Example 4: weedkilling efficacy by foliar treatment; L: redroot pigweed
Summary of the method: as §3

Italian ryegrass [26] = experiment: Test Example 4: weedkilling efficacy by foliar treatment; I: Italian ryegrass
Summary of the method: as §3

green foxtail [27] = experiment: Test Example 3: weedkilling efficacy through soil treatment; E: green foxtail
Summary of the method: as §1

directly sown rice [28] = experiment: Test Example 4: foliar treatment, effect on crop; b: directly sown rice
Summary of the method: as §3

wheat [29] = experiment: Test Example 4: foliar treatment, effect on crop; e: wheat
Summary of the method: as §3

beet [30] = experiment: Test Example 4: foliar treatment, effect on crop; f: beet
Summary of the method: as §3

chickweed [31] = experiment: Test Example 3: weedkilling efficacy through soil treatment; N: chickweed
Summary of the method: as §1

soybean [32] = experiment: Test Example 3: soil treatment, effect on crop; d: soybean
Summary of the method: as §1

birds-eye speedwell [33] = experiment: Test Example 3: weedkilling efficacy through soil treatment; p: birds-eye speedwell
Summary of the method: as §1

wheat [34] = experiment: Test Example 3: soil treatment, effect on crop; e: wheat
Summary of the method: as §1

corn [35] = experiment: Test Example 4: foliar treatment, effect on crop; c: corn
Summary of the method: as §3

barnyard grass [36] = experiment: Test Example 3: weedkilling efficacy through soil treatment; F: barnyard grass
Summary of the method: as §1

barnyard grass [37] = experiment: Test Example 4: weedkilling efficacy by foliar treatment; F: barnyard grass
Summary of the method: as §3

bulrush [38] = experiment: Test Example 1: weedkilling efficacy, preemergent weed treatment in the submerged state; B: bulrush
Summary of the method: as §4

rapeseed [39] = experiment: Test Example 4: foliar treatment, effect on crop; g: rapeseed
Summary of the method: as §3

birds-eye speedwell [40] = experiment: Test Example 4: weedkilling efficacy by foliar treatment; p: birds-eye speedwell
Summary of the method: as §3

black-grass [41] = experiment: Test Example 4: weedkilling efficacy by foliar treatment; H: black-grass
Summary of the method: as §3

oval-leafed pondweed [42] = experiment: Test Example 1: weedkilling efficacy, preemergent weed treatment in the submerged state; C: oval-leafed pondweed
Summary of the method: as §4

SMILES: CC1=C(c2ccccc2)C(=O)N(C(C)(C)C(=O)Nc2cc(C(F)(F)F)cc(F)n2)CO1 [B-2-40]
- J (common wind-grass) weedkilling efficacy grade (common wind-grass [1]): 5 (weed kill ratio 90% or more, (practically complete withering))
- C (oval-leafed pondweed) weedkilling efficacy grade (oval-leafed pondweed [2]): 5 (weed kill ratio 90% or more, (practically complete withering))
- d (soybean) effect on crop grade (soybean [3]): 5 (weed kill ratio 90% or more, (practically complete withering))
- f (beet) effect on crop grade (beet [4]): 3 (weed kill ratio 40% or more, less than 70%)
- D (crabgrass) weedkilling efficacy grade (crabgrass [5]): 5 (weed kill ratio 90% or more, (practically complete withering))
- B (bulrush) weedkilling efficacy grade (bulrush [6]): 5 (weed kill ratio 90% or more, (practically complete withering))
- I (Italian ryegrass) weedkilling efficacy grade (Italian ryegrass [7]): 5 (weed kill ratio 90% or more, (practically complete withering))
- H (black-grass) weedkilling efficacy grade (black-grass [8]): 5 (weed kill ratio 90% or more, (practically complete withering))
- L (redroot pigweed) weedkilling efficacy grade (redroot pigweed [9]): 4 (weed kill ratio 70% or more, less than 90%)
- M (fig-leafed goosefoot) weedkilling efficacy grade (fig-leafed goosefoot [10]): 5 (weed kill ratio 90% or more, (practically complete withering))
- A (barnyard grass) weedkilling efficacy grade (barnyard grass [11]): 5 (weed kill ratio 90% or more, (practically complete withering))
- N (chickweed) weedkilling efficacy grade (chickweed [12]): 4 (weed kill ratio 70% or more, less than 90%)
- O (catchweed) weedkilling efficacy grade (catchweed): 5 (weed kill ratio 90% or more, (practically complete withering))
- K (Indian mallow) weedkilling efficacy grade (Indian mallow [13]): 5 (weed kill ratio 90% or more, (practically complete withering))
- A (barnyard grass) weedkilling efficacy grade (barnyard grass [14]): 5 (weed kill ratio 90% or more, (practically complete withering))
- J (common wind-grass) weedkilling efficacy grade (common wind-grass [15]): 5 (weed kill ratio 90% or more, (practically complete withering))
- G (wild oat) weedkilling efficacy grade (wild oat [16]): 5 (weed kill ratio 90% or more, (practically complete withering))
- c (corn) effect on crop grade (corn [17]): 0 (weed kill ratio 5% or less (practically no effect))
- a (transplanted rice) effect on crop grade (transplanted rice): 3 (weed kill ratio 40% or more, less than 70%)
- D (crabgrass) weedkilling efficacy grade (crabgrass [18]): 5 (weed kill ratio 90% or more, (practically complete withering))
- M (fig-leafed goosefoot) weedkilling efficacy grade (fig-leafed goosefoot [19]): 5 (weed kill ratio 90% or more, (practically complete withering))
- K (Indian mallow) weedkilling efficacy grade (Indian mallow [20]): 5 (weed kill ratio 90% or more, (practically complete withering))
- g (rapeseed) effect on crop grade (rapeseed [21]): 4 (weed kill ratio 70% or more, less than 90%)
- b (directly sown rice) effect on crop grade (directly sown rice [22]): 5 (weed kill ratio 90% or more, (practically complete withering))
- E (green foxtail) weedkilling efficacy grade (green foxtail [23]): 5 (weed kill ratio 90% or more, (practically complete withering))
- G (wild oat) weedkilling efficacy grade (wild oat [24]): 5 (weed kill ratio 90% or more, (practically complete withering))
- L (redroot pigweed) weedkilling efficacy grade (redroot pigweed [25]): 5 (weed kill ratio 90% or more, (practically complete withering))
- I (Italian ryegrass) weedkilling efficacy grade (Italian ryegrass [26]): 5 (weed kill ratio 90% or more, (practically complete withering))
- E (green foxtail) weedkilling efficacy grade (green foxtail [27]): 5 (weed kill ratio 90% or more, (practically complete withering))
- b (directly sown rice) effect on crop grade (directly sown rice [28]): 5 (weed kill ratio 90% or more, (practically complete withering))
- e (wheat) effect on crop grade (wheat [29]): 1 (weed kill ratio 5% or more, less than 20%)
- f (beet) effect on crop grade (beet [30]): 4 (weed kill ratio 70% or more, less than 90%)
- N (chickweed) weedkilling efficacy grade (chickweed [31]): 4 (weed kill ratio 70% or more, less than 90%)
- d (soybean) effect on crop grade (soybean [32]): 2 (weed kill ratio 20% or more, less than 40%)
- P (birds-eye speedwell) weedkilling efficacy grade (birds-eye speedwell [33]): 5 (weed kill ratio 90% or more, (practically complete withering))
- e (wheat) effect on crop grade (wheat [34]): 0 (weed kill ratio 5% or less (practically no effect))
- c (corn) effect on crop grade (corn [35]): 5 (weed kill ratio 90% or more, (practically complete withering))
- F (barnyard grass) weedkilling efficacy grade (barnyard grass [36]): 5 (weed kill ratio 90% or more, (practically complete withering))
- F (barnyard grass) weedkilling efficacy grade (barnyard grass [37]): 5 (weed kill ratio 90% or more, (practically complete withering))
- B (bulrush) weedkilling efficacy grade (bulrush [38]): 5 (weed kill ratio 90% or more, (practically complete withering))
- g (rapeseed) effect on crop grade (rapeseed [39]): 4 (weed kill ratio 70% or more, less than 90%)
- P (birds-eye speedwell) weedkilling efficacy grade (birds-eye speedwell [40]): 4 (weed kill ratio 70% or more, less than 90%)
- H (black-grass) weedkilling efficacy grade (black-grass [41]): 5 (weed kill ratio 90% or more, (practically complete withering))
- C (oval-leafed pondweed) weedkilling efficacy grade (oval-leafed pondweed [42]): 5 (weed kill ratio 90% or more, (practically complete withering))
